Test results published in patent US7470690B2, “4-(2-Fluorophenyl)-6-methyl-2-(1-piperazinyl)thieno[2,3-D)pyrimidine in the treatment of functional bowel disorder” (Dynogen Pharmaceuticals, Inc., priority 2002, dated 2008).

Test system: male Sprague-Dawley rats
Experiment: Inhibition of the reflex depressor response to colorectal distension in anaesthetised rats
Type: in vivo, rat
Settings: for Fall in arterial blood pressure (mean absolute decrease in mean arterial pressure, standard error of mean in brackets) evoked by distension of the balloon: following MCI-225 3 mg/kg i.v.
Text: The data on which this invention is based will now be described. In a study using intact animals, the ability of a drug to inhibit the reflex depressor response to colorectal distension can be assessed. In this model, an inhibition of the reflex indicates modulation of visceral nociceptive neurotransmission and, therefore, the use of the drug in functional bowel disease (e.g. IBS); see Kozlowski et al, 2000, Gut 46, 474-480. Allodynia and visceral pain are important components of functional bowel disease.
Experiments were performed on male Sprague-Dawley rats (250-300 g). Anaesthesia was induced with isoflurane (2.5% in oxygen) and maintained with alpha chlorolose (80 mg/kg i.v.). The left carotid artery was cannulated for the measurement of blood pressure and heart rate and the left jugular vein cannulated for drug administration. A tracheal cannula was implanted for artificial respiration if required. A 10 mm long latex balloon was inserted intrarectally so that the tip of the balloon was 20 mm from the anal verge (Kozlowski et al, supra). The balloon was connected via a double lumen cannula to a pressure transducer and also to a saline-filled syringe for inflation/deflation of the balloon. Throughout the experiment, body temperature was kept constant at 36-38 C using a homeothermic blanket.
Once stable baseline parameters were obtained (approximately after 20 minutes), the balloon was rapidly inflated with increasing volumes of saline (0.5-2.5 ml) for 30 seconds at 5 minute intervals, and the resultant change in blood pressure recorded. Three distinct response curves were constructed, with a 10 minute stabilisation period between each curve. In one group of animals, 10 minutes prior to the commencement of the final distension response curve, a single bolus of MCI-225 (3 mg/kg) was administered intravenously; in a second group of animals, a single bolus dose of vehicle was administered. The effect of MCI-225 and vehicle was determined by analysing the changes in colorectal distension that evoked depressor response.

## Cc1cc2c(-c3ccccc3F)nc(N3CCNCC3)nc2s1.Cl.O [MCI-225, 4-(2-Fluorophenyl)-6-methyl-2-(1-piperazinyl)thieno[2,3-D]pyrimidine monohydrate hydrochloride]
3 mg/kg i.v., colorectal balloon distension
  Effect on distension-induced falls in blood pressure (in words): inhibited the distension-induced falls in blood pressure
0.5 ml balloon volume, n=6
  Fall in arterial blood pressure (mean absolute decrease in mean arterial pressure, standard error of mean in brackets) evoked by distension of the balloon: 2.2 (1.65) mmHg
1.0 ml balloon volume, n=6
  Fall in arterial blood pressure (mean absolute decrease in mean arterial pressure, standard error of mean in brackets) evoked by distension of the balloon: 6.3 (2.6) mmHg
1.5 ml balloon volume, n=6
  Fall in arterial blood pressure (mean absolute decrease in mean arterial pressure, standard error of mean in brackets) evoked by distension of the balloon: 10.6 (3.9) mmHg
2.0 ml balloon volume, n=6, p less than 0.01 vs before drug (paired t test)
  Fall in arterial blood pressure (mean absolute decrease in mean arterial pressure, standard error of mean in brackets) evoked by distension of the balloon: 15.3 (5.4) mmHg
2.5 ml balloon volume, n=5, p less than 0.05 vs before drug (paired t test)
  Fall in arterial blood pressure (mean absolute decrease in mean arterial pressure, standard error of mean in brackets) evoked by distension of the balloon: 24.6 (7.3) mmHg
